According to patent publication US20070186358A1, “Concentrated optical brightener solutions” (priority 2004, published 2007):

Experiments:
[1] = Storage stability of concentrated aqueous solution (precipitation at 5° C.); type: physicochemical; conditions: aqueous solution of sodium salt, 0.330 mol/kg, 2.0% sodium chloride, no solubilizing agent; 2 weeks at 5° C.
Experimental: (§1) A solution of 21.3 parts aniline-2,5-disulphonic acid and 6.7 parts sodium hydroxide in 30 parts water is added to a stirred suspension of 15.5 parts cyanuric chloride in 50 parts ice water. The pH is kept at 6 by the dropwise addition of 30% sodium hydroxide. The mixture is stirred below 10° C. until primary aromatic amine groups can no longer be detected by the diazo reaction. A solution of 14.8 parts 4,4′-diaminostilbene-2,2′-disulphonic acid and 3.2 parts sodium hydroxide in 20 parts water is then added, the pH is adjusted to between 6.5 and 7.5 by the addition of 30% sodium hydroxide and the mixture is stirred at 30° C. until a negative diazo reaction is obtained. A solution of 12.2 parts L-aspartic acid in 22.9 parts 16% sodium hydoxide is added, and the mixture is heated at reflux for 6 hours, the pH being kept at 7.5 to 8.5 by the addition of 30% sodium hydroxide. The aqueous solution so-formed of (2) in the form of its sodium salt, which is approximately 0.167 mol/kg in concentration, is desalinated by membrane filtration and concentrated to 0.330 mol/kg (50% by weight).
(§2) An aqueous solution of (3) in the form of its sodium salt at a concentration of 0.330 mol/kg (51% by weight) is prepared as described in Example 1 but using 13.5 parts L-glutamic acid in place of 12.2 parts L-aspartic acid.

[2] = Viscosity of concentrated aqueous solution; type: physicochemical; conditions: aqueous solution of sodium salt, 0.330 mol/kg, 2.0% sodium chloride; at 20° C.
Experimental: as §1, §2

Row | Structure (SMILES) | precipitation on storage [1] | viscosity [2]
1 | O=C(O)CC(Nc1nc(Nc2ccc(/C=C/c3ccc(Nc4nc(Nc5cc(S(=O)(=O)O)ccc5S(=O)(=O)O)nc(NC(CC(=O)O)C(=O)O)n4)cc3S(=O)(=O)O)c(S(=O)(=O)O)c2)nc(Nc2cc(S(=O)(=O)O)ccc2S(=O)(=O)O)n1)C(=O)O (stereo not shown) [Example 1] | no signs of precipitation | 0.23-0.25 Pa.s
2 | O=C(O)CCC(Nc1nc(Nc2ccc(/C=C/c3ccc(Nc4nc(Nc5cc(S(=O)(=O)O)ccc5S(=O)(=O)O)nc(NC(CCC(=O)O)C(=O)O)n4)cc3S(=O)(=O)O)c(S(=O)(=O)O)c2)nc(Nc2cc(S(=O)(=O)O)ccc2S(=O)(=O)O)n1)C(=O)O (stereo not shown) [Example 2] | no signs of precipitation | 0.23-0.25 Pa.s
